Data published in paper PMC7403315, “Cyclic peptide FXII inhibitor provides safe anticoagulation in a thrombosis model and in artificial lungs” (Nature Communications, 2020).
Several values for one entry are separate records, joined by “and”; a condition that tells them apart may be missing. Equal entries are not always repeated. Where two headings read alike, the source gives them in different places. Starred links: 1 amine or outer side, 2 acyl side, 3 side chain; linkers in the order of their positions; H or OH if unused. Positions of bridges follow the written chain, without caps; N, C: chain ends. Non-standard residues stand in square brackets, D forms with d. Residues, ends and D or L forms follow the SMILES beside them. TATA = O=C(CC[*:1])N1CN(C(=O)CC[*:2])CN(C(=O)CC[*:3])C1; Phe(4-F) = N[C@@H](Cc1ccc(F)cc1)C(=O)O; β3hR = N=C(N)NCCC[C@H](N)CC(=O)O

Tests used:
[1] = human; cited from earlier work
[2] = Observation of toxicity or adverse effects in the animal studies; type: in vivo, mice, rabbits, pigs; conditions: all studies with the three species
[3] = Plasma degradation assay (LC-MS); type: in vitro ADME, mouse; conditions: 37 °C
Method: Plasma stability and peptide cleavage sites were assessed by incubating the bicyclic peptides in mouse plasma and analyzing the products with an LC-MS system (LCMS-2020, Shimadzu). Peptide (2 μl of 2 mM in H2O) was added to 48 μl of citrated mouse plasma (Innovative Research) to obtain a final peptide concentration of 80 μM. The mixture was incubated in a water bath at 37 °C. At different time points (0, 15, 24, 72, 96, 120, and 144 h), samples of 5 μl were removed, mixed with 5 μl of 6 M guanidinium hydrochloride, and incubated for 30 min at RT. Plasma proteins were precipitated by incubation with 200 μl of ice cold EtOH and 0.1% (v/v) formic acid for 30 min and centrifuged at 9000 × g for 20 min at 4 °C. […] The residue was dissolved in 40 µl of deionized water containing 0.1% (v/v) CHOOH and analyzed by LC-MS. The samples were analyzed using an analytical C18 column (Phenomenex C18 Kinetex column, 50 × 2.1 mm, 2.6 μm, 100 Å) and a linear gradient of 5–35% solvent B (MeCN, 0.05% [v/v] CHOOH) in solvent A (H2O, 0.05% [v/v] CHOOH) in 5.5 min at a flow of 1 ml per min. The masses of the intact peptide and degradation products were measured on a single quadrupole mass spectrometer in positive ion mode using electrospray ionization. Peptides were quantified based on the absolute intensities of the detected mass peaks (M^3+ and M^4+).

[4] = Pharmacokinetic study in mice (plasma concentration by LC-MS); type: in vivo, mouse; conditions: 5 mg kg^−1 subcutaneous
Method: Mice for all experiments were kept at ambient temperature (around 20 °C), around 60% humidity, half-day light/half-day dark cycles, and in groups of 2–5 mice per cage. C57BL/6J wild-type mice (male, 10–20 weeks old, 25–30 g, Charles River) were injected subcutaneously over the shoulders with 5 mg kg^−1 of FXII900 (0.5 mg ml^−1 in PBS, pH 7.4). The mice were anaesthetized 3 min before the scheduled blood collection time point (40 mg kg^−1 pentobarbital). […] The mice were euthanized by cervical dislocation. The blood was immediately processed to plasma by centrifugation for 10 min at 2000 × g and 4 °C, and stored at −80 °C. The concentration of FXII900 in the plasma samples was determined by LC-MS as described below. Differenct mice were used for each time point.
(§1) The concentration of FXII900 in the plasma samples was quantified based on peak intensities of total ion current (TIC) chromatograms acquired by LC-MS (LCMS-2020, Shimadzu). To 15 μl of plasma sample, 1 μM of internal standard peptide and 5 μl of 6 M guanidinium hydrochloride solution were added and mixed. Plasma proteins were precipitated by the addition of 400 µl of ice cold ethanol (99.9% [v/v] EtOH, 0.1% [v/v] TFA) and incubated on ice for one hour. Precipitate was removed by centrifugation (9000 × g, 20 min, 4 °C) and the supernatant dried by centrifugal evaporation under vacuum. Dried samples were dissolved by sequentially adding 2 μl of DMSO and 18 μl of H2O containing 0.1% (v/v) CHOOH and analyzed by LC-MS. The samples were analyzed using an analytical C18 column (Phenomenex C18 Kinetex column, 50 × 2.1 mm, 2.6 µm, 100 Å) and a linear gradient of 5–30% solvent B (MeCN, 0.05% [v/v] CHOOH) in solvent A (H2O, 0.05% [v/v] CHOOH) in 4.5 min at a flow of 1 ml per min. The mass was measured on a single quadrupole mass spectrometer in positive ion mode using electrospray ionization. Peptides were quantified based on the absolute intensities of the detected mass peaks (M^3+ and M^4+).

[5] = Pharmacokinetic study in rabbits (plasma concentration by LC-MS); type: in vivo, rabbit
Method: The pharmacokinetic properties of FXII900 applied intravenously were determined as follows. Female New Zealand White rabbits (10–20 weeks old) were injected with 3.7 mg kg^−1 FXII900 dissolved in 1 ml PBS, pH 7.4 via the ear vein. […] The concentration of FXII900 in the plasma samples was determined by LC-MS as described below. The pharmacokinetic properties of FXII900 applied subcutaneously were determined as follows. Female New Zealand White rabbits (2.5–2.9 kg) were injected subcutaneously over the shoulders with 3.7 mg kg^−1 of FXII900 dissolved in 1 ml PBS pH 7.4. […] The plasma was stored at −80 °C. The concentration of FXII900 in the plasma samples was determined by LC-MS as described below.
as §1

[6] = female, New Zealand White, rabbit, plasma, intravenous, 3.7 mg kg-1

Question: Which “t1/2 of cleavage of N-terminal Arg1 by plasma proteases” value [1] does the source give for `CC(C)C[C@@H]1NC(=O)[C@H](CCC(N)=O)NC(=O)[C@H](CCCNC(=N)N)NC(=O)[C@@H]2CSCCC(=O)N3CN(CN(C3)C(=O)CCSC[C@H](NC(=O)[C@@H](N)CCCNC(=N)N)C(=O)N[C@@H](Cc3ccccc3)C(=O)N[C@@H](CCCNC(=N)N)C(=O)N[C@@H](CC(C)C)C(=O)N3CCC[C@H]3C(=O)N2)C(=O)CCSC[C@@H](C(=O)N[C@@H](CCCNC(=N)N)C(N)=O)NC(=O)[C@H](CCCNC(=N)N)NC1=O` [FXII618] here?
Answer: around 4 h

Question: With `CC(C)C[C@@H]1NC(=O)[C@H](CCC(N)=O)NC(=O)[C@H](Cc2c[nH]cn2)NC(=O)[C@@H]2CSCCC(=O)N3CN(CN(C3)C(=O)CCSC[C@H](NC(=O)[C@@H](CO)NC(=O)[C@H](N)CCCNC(=N)N)C(=O)N[C@@H](Cc3ccc(F)cc3)C(=O)N[C@@H](CCCNC(=N)N)C(=O)N[C@@H](CC(C)C)C(=O)N3CCC[C@H]3C(=O)N2)C(=O)CCSC[C@@H](C(N)=O)NC(=O)C[C@H](CCCNC(=N)N)NC1=O` [FXII900] (H-[dR][dS]C[Phe(4-F)]RLPCHQL[β3hR]C-NH2; linker 3-8-13 via TATA) as the compound, how does the “signs of toxicity or other adverse effects” value [2] read?
Answer: did not observe any signs of toxicity or other adverse effects

Question: What about the “degradation products by mass spectrometric analysis of plasma samples” value [3] of the same compound?
Answer: no degradation products

Question: What about the Plasma conc. ([4]; 15 min) of the same compound?
Answer: 1470 nM

Question: What about the level at time molar at 0.05 h ([4]; male, C57BL/6J, mouse, plasma, sc, 5 mg/kg, 3 min, read-out: Plasma conc.) of the same compound?
Answer: ~1000 nM

Question: And the level at time molar at […] ([4]; male, C57BL/6J, mouse, plasma, sc, 5 mg/kg, 15 min, read-out: Plasma conc.)?
Answer: 1990 nM

Question: And the Vd [5, 6]?
Answer: 0.28 ± 0.05 L/kg

Question: What about the clearance [5, 6] of the same compound?
Answer: 16.1 ± 1 mL/min/kg

Question: And the half-life ([5]; female, New Zealand White, rabbit, plasma, intravenous, 3.7 mg kg^−1, read-out: elimination half-life (t1/2 β))?
Answer: 12 ± 2 min

Question: What about the level at time molar at 2 min ([5]; female, New Zealand White, rabbit, plasma, iv, 3.7 mg/kg, intravenous administration, 2 min, individual rabbits and analyses, read-out: Plasma conc.) of the same compound?
Answer: 5510 nM

Question: And the level at time molar at 5 min ([5]; female, New Zealand White, rabbit, plasma, iv, 3.7 mg/kg, intravenous administration, 5 min, individual rabbits and analyses, read-out: Plasma conc.)?
Answer: 2610 nM

Question: And the level at time molar at 10 min ([5]; female, New Zealand White, rabbit, plasma, iv, 3.7 mg/kg, intravenous administration, 10 min, individual rabbits and analyses, read-out: Plasma conc.)?
Answer: 2250 nM

Question: What about the level at time molar at 20 min ([5]; female, New Zealand White, rabbit, plasma, iv, 3.7 mg/kg, intravenous administration, 20 min, individual rabbits and analyses, read-out: Plasma conc.) of the same compound?
Answer: 1260 nM

Question: What about the level at time molar at 40 min ([5]; female, New Zealand White, rabbit, plasma, iv, 3.7 mg/kg, intravenous administration, 40 min, individual rabbits and analyses, read-out: Plasma conc.) of the same compound?
Answer: 503 nM

Question: And the level at time molar at 40 min ([5]; female, New Zealand White, rabbit, plasma, sc, 3.7 mg/kg, subcutaneous administration, 40 min, individual rabbits and analyses, read-out: Plasma conc.)?
Answer: 254 nM

Question: And the “Plasma conc.” value ([5]; intravenous administration, 5 min, individual rabbits and analyses)?
Answer: 2596 nM

Question: What about the “Plasma conc.” value ([5]; intravenous administration, 10 min, individual rabbits and analyses) of the same compound?
Answer: 2079 nM

Question: What about the “Plasma conc.” value ([5]; intravenous administration, 20 min, individual rabbits and analyses) of the same compound?
Answer: 1683 nM and 1119 nM

Question: What about the “Plasma conc.” value ([5]; intravenous administration, 40 min, individual rabbits and analyses) of the same compound?
Answer: 313.9 nM

Question: What about the “Plasma conc.” value ([5]; subcutaneous administration, 10 min, individual rabbits and analyses) of the same compound?
Answer: 237.6 nM

Question: What about the “Plasma conc.” value ([5]; subcutaneous administration, 160 min, individual rabbits and analyses) of the same compound?
Answer: -5.09 nM
